From PMC3929320 (Journal of medicinal chemistry, 2010)

Columns and labels:
[1] = molecular target: T1, human kynurenine aminotransferase II (hKAT II) (Homo sapiens, UniProt Q8N5Z0); experiment: recombinant enzyme assay, L-KYN to KYNA conversion by HPLC; assay type: biochemical
Target sequence in this assay (Q8N5Z0 whole entry): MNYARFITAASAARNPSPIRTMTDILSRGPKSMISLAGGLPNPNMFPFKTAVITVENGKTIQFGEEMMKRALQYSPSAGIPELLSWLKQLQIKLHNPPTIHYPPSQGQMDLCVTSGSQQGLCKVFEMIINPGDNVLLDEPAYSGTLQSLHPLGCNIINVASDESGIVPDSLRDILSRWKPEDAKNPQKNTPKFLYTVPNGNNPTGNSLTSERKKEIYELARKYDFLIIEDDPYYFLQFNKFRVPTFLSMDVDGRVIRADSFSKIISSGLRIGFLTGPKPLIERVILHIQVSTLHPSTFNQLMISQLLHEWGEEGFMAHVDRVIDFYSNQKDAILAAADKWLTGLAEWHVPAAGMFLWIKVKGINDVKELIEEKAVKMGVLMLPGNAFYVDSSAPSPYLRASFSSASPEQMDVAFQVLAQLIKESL

[2] = molecular target: T1, human kynurenine aminotransferase II (hKAT II); experiment: X-ray crystal structure at […] Å; assay type: biochemical
Target sequence in this assay (Q8N5Z0 2-425): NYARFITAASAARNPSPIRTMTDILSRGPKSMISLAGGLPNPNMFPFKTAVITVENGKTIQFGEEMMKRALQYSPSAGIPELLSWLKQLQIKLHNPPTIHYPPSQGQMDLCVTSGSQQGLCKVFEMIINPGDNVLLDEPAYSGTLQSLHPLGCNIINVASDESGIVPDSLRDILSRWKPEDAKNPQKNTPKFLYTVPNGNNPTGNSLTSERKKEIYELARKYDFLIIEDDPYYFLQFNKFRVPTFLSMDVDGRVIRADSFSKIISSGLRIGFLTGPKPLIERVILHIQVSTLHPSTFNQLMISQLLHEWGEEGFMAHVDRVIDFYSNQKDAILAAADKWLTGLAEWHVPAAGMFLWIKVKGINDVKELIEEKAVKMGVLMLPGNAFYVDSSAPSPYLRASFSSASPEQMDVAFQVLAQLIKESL

Row | SMILES | IC50 [1] | IC50 [2]
1 | C[C@@H]1COc2c(N3CCN(N)CC3)c(F)cc3c(=O)c(C(=O)O)cn1c23 [1*, 1* (stereoisomer of BFF-122)] | 0.91 and 1.5 (two enantiomers) μM | –
2 | C[C@H]1COc2c(N3CCN(N)CC3)c(F)cc3c(=O)c(C(=O)O)cn1c23 [compound 1, (S)-(−)-9-(4-aminopiperazin-1-yl)-8-fluoro-3-methyl-6-oxo-2,3-dihydro-6H-1-oxa-3a-azaphenalene-5-carboxylic acid] | – | 0.91 and 1.5 (two enantiomers) μM
